# Results from a melting point compilation (Tetko et al.; mined from patent text by program, amines drawn as free bases though some values may be those of a salt).
row,SMILES,melting point
1,CC(=O)N1CCc2c(sc(C)c2CCBr)C1,93 to 95 °C
2,NCc1ccc2c(c1)nc(CN1C(=O)N(C3CC3)Cc3ccccc31)n2CCCC(F)(F)F,154 °C
3,O=CN1CC2CC2(c2ccc(O)cc2)C1 (configuration not stated),166 to 167 °C
4,CC1(CO)C(=O)N(c2ccc(C#N)c(C(F)(F)F)c2)C(=O)N1CC#N (configuration not stated),171 °C
5,CCOC(=O)C1CCN(c2nc(COc3ccc(COc4nn(-c5ccccc5)cc4C=O)cc3OC)c(C)s2)CC1,126 to 127 °C
6,CC(=O)COc1ccc(N2N=C3c4ccccc4SCC3CC2=O)cc1 (configuration not stated),177 to 180 °C
7,COc1cc(Nc2c(C#N)cnc3cc(OCc4ccccc4)c(OC)cc23)c(Cl)cc1Cl,198 to 200 °C
8,Cc1cc(CC(C)NCCC(c2ccccc2)c2ccccc2)ccc1O (configuration not stated),115 to 118 °C
9,CN1CCC(c2nc(-c3ccncc3)c(-c3ccc(F)cc3)[nH]2)CC1,259 to 261 °C
10,O=C(O)CC(NS(=O)(=O)c1ccc2ccccc2c1)c1ccccc1 (configuration not stated),123 to 126 °C
11,Clc1cccc2c1ccn2Cc1ccccc1,58 to 60 °C
12,COc1ccccc1Cc1cccc(-c2ncc3c(n2)CC(C)(C)CC3)n1,251 to 252 °C
13,CC1=NN(c2c(Cl)cc(Cl)cc2Cl)C(=O)C1,178 to 180 °C
14,CCN(CC)CCCN1C(=O)NC(Cc2c[nH]c3ccccc23)C1=O (configuration not stated),90 °C
15,CCN(CC)Cc1ccc2c(c1)ncn2-c1cccc(-c2nccs2)c1,152 °C
16,c1ccc2[nH]c(SCc3cn4ccccc4n3)nc2c1,220 to 222 °C
17,CC(C)N1CC(c2nnc(Cc3ccc(F)cc3)o2)=C(O)C1=O,204 to 206 °C
18,O=Cc1cc2ccccc2nc1N1CCN(CC2CCCCC2)CC1,54 to 55 °C
19,CCC(C)(C)c1cc(-c2ccc(C=C3SC(N4CCOCC4)=NC3=O)s2)ccc1O,322 to 323 °C
20,CC(C)(C)c1cc(Cc2nc3cc(Cl)cc(Br)c3o2)cc(C(C)(C)C)c1O,133 to 136 °C
21,COc1ccc(C(=O)Nc2c(F)cccc2F)cc1OC1CCCC1,158 to 160 °C
22,Cc1cc(OC(=O)N[C@@H](CCC(=O)O)C(=O)O)ccc1N(CCCl)CCCl,160 to 162 °C
23,CN1CCc2c(Cl)c(O)c(O)c(Sc3ccccc3)c2CC1,173 to 174 °C
24,O=C(Nc1ccccc1)c1cccc(NC(=S)Nc2cc(Cl)cc(Cl)c2)c1,174 to 177 °C
25,O=C(NOC1CCCCO1)c1cnc(N2CCN(S(=O)(=O)c3ccc4ccccc4c3)CC2)nc1 (configuration not stated),198 °C
26,O=C1NC(=O)C2(O1)C(=O)N(Cc1ccc(Cl)c(Cl)c1)c1c(F)cccc12 (configuration not stated),101 to 102 °C

row,SMILES,melting point
1,CCCn1c(=O)c2c(NC)n[nH]c2n(Cc2ccccc2Cl)c1=O,> 300 °C
2,Nc1sc2c(c1C(=O)c1cccs1)CCC2,133 to 134 °C
3,COc1ccccc1SCCC(=O)O,91 to 91.5 °C
4,COc1ccc(C2NCCS2)cc1OC (configuration not stated),54 to 56 °C
5,CCNc1nc(Nc2ccccc2)ncc1CO,174 to 176 °C
6,CC(C)(C)[Si](C)(C)OCCCC(=O)c1cc(-c2ccc(S(C)(=O)=O)cc2)n(C2CCCCC2)n1,131 to 133 °C
7,Oc1ccccc1Oc1ncc(Cl)cn1,131 to 139 °C
8,CC(=O)O[C@H]1CC[C@H](CCCCCCC(=O)O)CC1,66 to 68 °C
9,COC(=O)C(O)NC(=O)OC(C)(C)C (configuration not stated),96 to 97 °C
10,C#CC1(NC(=O)C(CCN2CCN(c3ccccc3OC)CC2)c2ccccc2)CCCCC1 (configuration not stated),127 to 129 °C
11,CCN1c2ncc(COc3ccc(F)cc3)cc2C(=O)N(C)c2ccc(Cl)nc21,143 to 144 °C
12,Cc1ccc(-c2coc3c(C)c(C)cc(C)c23)nc1,134 to 135 °C
13,CC1(NC2=NS(=O)(=O)c3sc(Cl)cc3N2)CCCCC1,218 to 219 °C
14,Cc1nc(-c2ccc(C(F)(F)F)cc2)oc1CSc1ccc(CC(=O)O)cc1Cl,158 to 160 °C
15,CN(C)c1cccc(OCC(=O)NCCO[N+](=O)[O-])c1,62 to 63 °C
16,CCCC(=O)Nc1cccc(C(c2c(O)c3c(oc2=O)CCCCCC3)C2CC2)c1 (configuration not stated),222 to 224 °C
17,CCC1(C)CC2(NC(=O)N(c3ccccc3)C2=O)C(C)C(C)(CC)N1 (configuration not stated),150 to 153 °C
18,COc1cc(OC)c2c3c(n(Cc4ccccc4)c2c1)CCCC3C(N)=O (configuration not stated),190 to 192 °C
19,C[C@H](NC(=O)c1ccc(Cn2nnc(-c3ccc(OC(=O)C(C)(C)C)cc3)n2)cc1)C(=O)O,192 to 195 °C
20,Cc1c(C)c2c(c(C)c1NC(=O)CC(C)(C)C)C(c1cccc(C3OCCO3)c1)CO2 (configuration not stated),168 to 169 °C
21,CC1(CC(=O)Nc2cccc3ncccc23)CCCCC1,133 to 135 °C
22,CCc1cccc(Sc2ccccc2)c1NC(=O)CC1c2ccccc2Oc2ccccc21,237 to 239 °C
23,CCN(C(C)=O)c1cccc(-c2ccnc3c(C(=O)c4ccccc4)cnn23)c1,158 to 160 °C
24,CCCN(CCC)C(=O)C1CSc2ccc(N)cc21 (configuration not stated),100 °C
25,CN(C[C@H]1CC[C@H](C(=O)O)CC1)c1ncc(Br)cn1,111 to 113 °C
26,CCOCn1cc(-c2ccnc(N)n2)c2c(OC)cc(Br)nc21,> 210 °C

row,SMILES,melting point
1,COc1ccc(C/N=C/C(/C=N/Cc2ccc(OC)cc2)[N+](=O)[O-])cc1,132 °C
2,Cc1cc(C(=O)/C=C/C(=O)O)c(C)o1,144 to 147 °C
3,NC(=O)Cc1cccc(-c2csc(N=C(N)N)n2)n1,254 °C
4,Cc1ccc(C)n1CCNC(N)=O,139 to 141 °C
5,CC(C)(C)OC(=O)NCC1CCn2c(cc3ccccc32)C1 (configuration not stated),80 to 85 °C
6,O=C(c1ccc(Cl)cc1)c1cnc2ccc(Cl)cc2c1Cl,170 °C
7,C#CCn1c(C(F)(F)F)c(C=O)c2ccccc21,106 °C
8,CC1(C)OC(=O)Nc2ccc(-c3cccc(F)c3F)cc21,166 to 167 °C
9,COc1cc2c(cc1OC)N(N)C(=O)C(C(=O)OC(C)(C)C)C2 (configuration not stated),155 to 157 °C
10,CCc1nc(CCc2ccc(NC(=O)/C=C/c3cnn(C)c3-c3ccc(F)cc3)cc2)cs1,190 to 191 °C
11,COc1ccc(OC)c(C2CC=CCC2[N+](=O)[O-])c1 (configuration not stated),73 to 75 °C
12,CCCCc1oc2ccccc2c1C(=O)NCc1ccc2c(-c3ccc(C)cc3)c(O)ccc2c1,103 to 105 °C
13,CC(=O)Nc1nc(OCC(C)C)c2nc(Cl)ccc2n1,168 °C
14,Cc1ccnc2c1C(=O)c1nccc(Cl)c1C2=O,> 300 °C
15,O=C(c1c(F)cccc1F)N1CNCN(c2ccc(Oc3ccc(C(F)(F)F)cc3Cl)cc2F)C1=O,135 to 137 °C
16,CSc1nc2ccnn2c(NCc2ccco2)c1C#N,110 °C
17,CCN1C(=O)C(C)(C)C(=O)N(C)c2cc(CN(CCn3ccc4ccsc4c3=O)Cc3cccnc3C)ccc21,125 to 127 °C
18,O=Cc1ccc(OCCC2Oc3ccccc3N(Cc3cccc(Cl)c3)C2=O)cc1 (configuration not stated),130 to 131 °C
19,Cc1c(SCCCSc2ccc3ncc([N+](=O)[O-])n3n2)ccnc1C(S)c1nc2cc(S(C)(=O)=O)ccc2[nH]1 (configuration not stated),155 to 156 °C
20,Cc1cccc2c3c(n(Cc4ccccc4)c12)CCCC3=O,165 to 166 °C
21,CC1(C)CCC(C)(C)c2cc(CC#Cc3ccc(C(=O)NO)c(O)c3)ccc21,119 to 120 °C
22,O=C(O)Cc1ccc(OCc2ccccc2)cc1OCc1ccccc1,139 °C
23,Nc1ccc(-c2ccc(=O)[nH]n2)cc1Cl,280 to 282 °C
24,CC(C)(C#N)c1c(Cl)cc(N)cc1Cl,208 °C
25,CC(C)CC(CS)C(=O)NCC(=O)NCC(=O)O (configuration not stated),152 to 156 °C
26,Cc1oc(-c2cccc(-c3ccc(C(=O)O)cc3)c2)nc1CCOc1cccc(OC(C)(C)C(=O)O)c1,184 °C

row,SMILES,melting point
1,CCCCOCCOC(=O)NCCCCCCNC(=O)OCCOCCCC,64 to 66 °C
2,Cc1nccc(-c2cccc(S(=O)(=O)n3c(CCCC(=O)O)cc4nc(Cl)ccc43)c2)n1,178 to 188 °C
3,COc1cccc(CC(=O)O)c1OCCCc1cn(-c2ncc(Cl)cc2Cl)nc1C(C)C,105 to 106 °C
4,O=S(Cc1ccccc1)c1nc2cnccc2[nH]1 (configuration not stated),190 to 193 °C
5,O=C1N[C@@H](Cc2ccccc2)C(c2ccccc2)(c2ccccc2)O1,259 to 261 °C
6,CCCCc1ncc(/C=C(\Cc2cccs2)C(=O)O)n1Cc1ccc(CC(=O)O)cc1,169 to 171 °C
7,Cc1nc(-c2ccccc2)c(CBr)o1,75 to 76 °C
8,O=C(O)c1ccc(CCCc2c(CCNS(=O)(=O)Cc3ccc(Cl)c(Cl)c3)n(C(c3ccccc3)c3ccccc3)c3ccc(Cl)cc23)cc1,190 °C
9,O=c1[nH]c(=O)n(C2CC(F)C(CO)O2)cc1C(Br)=CI (configuration not stated),107 °C
10,CCCC(=O)c1c[nH]c2cc(COC(=O)c3ccccc3)ccc2c1=O,228 to 231 °C
11,CC1(C2CC2)OC(=O)Nc2ccc(-c3cccc(Cl)c3)cc21 (configuration not stated),158 to 159 °C
12,CN1CCC(CNc2ncc3ncnc(Nc4ccc(F)c(Cl)c4)c3n2)CC1,198 to 201 °C
13,CN(c1ncccc1C#N)C1CCN(Cc2ccccc2)CC1,58 to 60 °C
14,NC(C=Cc1ccccc1[N+](=O)[O-])=NO,173 °C
15,CCCN(c1ccncc1)N1C(=O)C(C)(C)c2ccccc21,125 to 127 °C
16,Cc1cccc(C(Cl)=NNc2ccccc2)c1,66 to 67 °C
17,CCCCOC(=O)COc1ccc(C(=O)N(C)c2ccccc2Sc2ccccc2-c2nnn[nH]2)cc1,148 to 150 °C
18,Cc1cc(C)cc(-c2nc(CCl)co2)c1,76 to 77 °C
19,O=C(O)COc1ccc(C2=CC(=O)CC(c3ccccc3)C2)c(Cl)c1Cl (configuration not stated),197 to 199 °C
20,O=C1C(=O)N(CC(F)(F)F)c2ccccc21,161 to 163 °C
21,CCOC(=O)C(Cc1cc2cccnc2n(-c2cccc([N+](=O)[O-])c2)c1=O)C(=O)c1ccncc1 (configuration not stated),72 to 73 °C
22,N=C(Nc1ccc2[nH]cc(C3CCN(C(=N)c4cccs4)CC3)c2c1)c1cccs1,115 to 117 °C
23,CCOC(=O)COc1ccc(CCl)cc1OC,64 to 66 °C
24,Cc1c(-c2ccc(O)cc2)sc(C=O)c1-c1cccc(O)c1,208 to 210 °C
